Measured values taken from US20230173032A1, “Treatment of Hyperuricemia” (Frederiksberg Hospital, priority 2020, published 2023).

Experiments:
[1] = LOSE-IT trial (NCT02905864): serious adverse events and deaths; type: in vivo, human; conditions: liraglutide 3 mg/day, 52 weeks
Method: Methods: In the LOSE-IT trial (NCT02905864), a randomised, double-blinded, placebo-controlled, parallel group, single-centre trial, 156 overweight and obese individuals with knee joint pain, were offered an initial 8-week intensive diet intervention (week −8 to 0) on Cambridge Weight Plan (800-1000 kcal/day) followed by a weight loss maintenance period in which participants were randomised to either liraglutide 3 mg/day or placebo for 52 weeks. Subjects with type 1 diabetes or type 2 diabetes with glucose-lowering drugs other than metformin were excluded from the study.

[2] = Semaglutide case studies: treatment emergent adverse events; type: in vivo, human
Method: Two patients with chronic gout and no diabetes where treated with another type of GLP-1 analog: Semaglutide subcutaneous (sc) once weekly.
Person, gout since more than 3 years no diabetes. Received 0.25 mg weekly for 6 weeks and then 0.5 mg twice.
Person, gout since more than 4 years, no diabetes. Received 0.25 mg sc for 6 weeks and 0.5 mg sc for 4 weeks.

| Compound | deaths [1] | participants who experienced serious adverse events [1] | treatment emergent adverse events, Patient 1 ([2]; 8 weeks treatment, nausea during the first 2 weeks) | treatment emergent adverse events, Patient 2 ([2]; 10 weeks treatment) |
| --- | --- | --- | --- | --- |
| CCCCCCCCCCCCCCCC(=O)N[C@@H](CCC(=O)NCCCC[C@H](NC(=O)[C@H](C)NC(=O)[C@H](C)NC(=O)[C@H](CCC(N)=O)NC(=O)CNC(=O)[C@H](CCC(=O)O)NC(=O)[C@H](CC(C)C)NC(=O)[C@H](Cc1ccc(O)cc1)NC(=O)[C@H](CO)NC(=O)[C@H](CO)NC(=O)[C@@H](NC(=O)[C@H](CC(=O)O)NC(=O)[C@H](CO)NC(=O)[C@@H](NC(=O)[C@H](Cc1ccccc1)NC(=O)[C@@H](NC(=O)CNC(=O)[C@H](CCC(=O)O)NC(=O)[C@H](C)NC(=O)[C@@H](N)Cc1cnc[nH]1)[C@@H](C)O)[C@@H](C)O)C(C)C)C(=O)N[C@@H](CCC(=O)O)C(=O)N[C@@H](Cc1ccccc1)C(=O)N[C@H](C(=O)N[C@@H](C)C(=O)N[C@@H](Cc1c[nH]c2ccccc12)C(=O)N[C@@H](CC(C)C)C(=O)N[C@H](C(=O)N[C@@H](CCCNC(=N)N)C(=O)NCC(=O)N[C@@H](CCCNC(=N)N)C(=O)NCC(=O)O)C(C)C)[C@@H](C)CC)C(=O)O [liraglutide, Arg34, Lys26-(N-epsilon-(gamma-L-glutamyl(N-alfa-hexadecanoyl)))-GLP-I(7-37)] | no deaths were observed | Four |  |  |
| CC[C@H](C)[C@H](NC(=O)[C@H](Cc1ccccc1)NC(=O)[C@H](CCC(=O)O)NC(=O)[C@H](CCCCNC(=O)COCCOCCNC(=O)COCCOCCNC(=O)CC[C@H](NC(=O)CCCCCCCCCCCCCCCCC(=O)O)C(=O)O)NC(=O)[C@H](C)NC(=O)[C@H](C)NC(=O)[C@H](CCC(N)=O)NC(=O)CNC(=O)[C@H](CCC(=O)O)NC(=O)[C@H](CC(C)C)NC(=O)[C@H](Cc1ccc(O)cc1)NC(=O)[C@H](CO)NC(=O)[C@H](CO)NC(=O)[C@@H](NC(=O)[C@H](CC(=O)O)NC(=O)[C@H](CO)NC(=O)[C@@H](NC(=O)[C@H](Cc1ccccc1)NC(=O)[C@@H](NC(=O)CNC(=O)[C@H](CCC(=O)O)NC(=O)C(C)(C)NC(=O)[C@@H](N)Cc1cnc[nH]1)[C@@H](C)O)[C@@H](C)O)C(C)C)C(=O)N[C@@H](C)C(=O)N[C@@H](Cc1c[nH]c2ccccc12)C(=O)N[C@@H](CC(C)C)C(=O)N[C@H](C(=O)N[C@@H](CCCNC(=N)N)C(=O)NCC(=O)N[C@@H](CCCNC(=N)N)C(=O)NCC(=O)O)C(C)C [Semaglutide] |  |  | No treatment emergent adverse events were experienced apart from slight nausea | No treatment emergent adverse events were experienced apart from slight constipation |
